Patent US10285989B2, “Pyrimidinone amide compounds as PDE2 inhibitors” (Merck Sharp & Dohme Corp., priority 2015, dated 2019)

Target: human PDE2A1 (Homo sapiens (Human), UniProt O00408)
Experiment: PDE2 IMAP FP inhibition assay, human PDE2A1 (selectivity panel format)
Assay type: biochemical
Conditions: Lab B; read-out: Human PDE2 Ki (nM) - Lab B
Procedure: Selectivity for PDE2, as compared to other PDE families, was assessed using the IMAP® technology. Human PDE10A2 enzyme was prepared from cytosolic fractions of transiently transfected HEK cells.
A Labcyte POD 810 (Labcyte, Sunnyvale, Calif.) was used to dispense 200 nL from each well of the titration plate to make eleven copies of the assay plate for each titration, one copy for each PDE enzyme. A solution of each enzyme (dilution from aliquots, sufficient to produce 20% substrate conversion) and a separate solution of FAM-labeled cAMP or FAM-labeled cGMP from Molecular Devices (Sunnyvale, Calif., product # R7506 or cGMP#R7508), at a final concentration of 50 nM were made in the assay buffer (10 mM Tris HCl, pH 7.2, 10 mM MgCl2, 0.05% NaN3 0.01% Tween-20, and 1 mM DTT). Note that the substrate for PDE2 is 50 nM FAM cAMP containing 1000 nM of cGMP. The enzyme and the substrate were then added to the assay plates in two consecutive additions of 10 μL and then shaken to mix. The reaction was allowed to proceed at room temperature for 60 minutes. A binding solution was then made from the kit components, comprised of 80% Solution A, 20% Solution B and binding reagent at a volume of 1/600 the total binding solution. The enzymatic reaction was stopped by addition of 60 μL of the binding solution to each well of the assay plate. The plates were sealed and shaken for 10 seconds. The plates were incubated at room temperature for one hour, then the parallel and perpendicular fluorescence was measured using a Tecan Genios Pro plate reader (Tecan, Switzerland). […] The intrinsic PDE2 inhibitory activity of a compound which may be used in accordance with the present invention may be determined by these assays. […]

Chain of human PDE2A1 (O00408 other isoform, or with tags, fused parts or gaps): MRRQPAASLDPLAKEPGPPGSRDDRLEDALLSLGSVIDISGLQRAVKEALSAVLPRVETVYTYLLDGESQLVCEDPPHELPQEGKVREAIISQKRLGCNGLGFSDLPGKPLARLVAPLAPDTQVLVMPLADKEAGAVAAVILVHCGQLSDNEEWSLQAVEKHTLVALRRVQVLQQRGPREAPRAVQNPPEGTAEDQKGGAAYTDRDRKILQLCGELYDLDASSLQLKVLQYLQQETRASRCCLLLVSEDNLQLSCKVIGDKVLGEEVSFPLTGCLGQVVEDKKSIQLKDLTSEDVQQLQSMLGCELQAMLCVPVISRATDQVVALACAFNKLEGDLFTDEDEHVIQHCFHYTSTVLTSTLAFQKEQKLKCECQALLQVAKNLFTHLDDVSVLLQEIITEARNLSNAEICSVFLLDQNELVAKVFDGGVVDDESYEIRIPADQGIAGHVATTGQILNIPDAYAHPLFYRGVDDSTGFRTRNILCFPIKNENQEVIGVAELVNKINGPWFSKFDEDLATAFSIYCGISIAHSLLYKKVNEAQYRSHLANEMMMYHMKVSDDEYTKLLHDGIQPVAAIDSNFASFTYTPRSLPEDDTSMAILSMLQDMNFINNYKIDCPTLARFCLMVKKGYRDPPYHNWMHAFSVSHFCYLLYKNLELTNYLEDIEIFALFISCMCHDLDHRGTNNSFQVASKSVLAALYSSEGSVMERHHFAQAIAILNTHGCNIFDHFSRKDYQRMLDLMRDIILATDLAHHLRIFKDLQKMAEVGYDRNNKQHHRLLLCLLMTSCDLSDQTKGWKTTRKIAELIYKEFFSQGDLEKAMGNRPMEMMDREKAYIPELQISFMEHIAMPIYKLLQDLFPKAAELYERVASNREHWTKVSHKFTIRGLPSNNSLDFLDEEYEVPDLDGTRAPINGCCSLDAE

Compound	Ki
CN(C)c1nc(C(=O)NC(CO)c2ccc(C(F)(F)F)cc2)cc(=O)[nH]1 (stereo not shown) [Example 206, 2-(dimethylamino)-N-{2-hydroxy-1-[4-(trifluoromethyl)phenyl]ethyl}-6-oxo-1,6-dihydropyrimidine-4-carboxamide]	7.2 nM
CN(C)c1nc(C(=O)NC(c2ccc(C(F)(F)F)cc2)C(F)(F)F)cc(=O)[nH]1 (stereo not shown) [Example 207, 2-(dimethylamino)-6-oxo-N-{2,2,2-trifluoro-1-[4-(trifluoromethyl)phenyl]ethyl}-1,6-dihydropyrimidine-4-carboxamide]	2.9 nM
CN(C)c1nc(C(=O)N[C@@H](c2ccc(OC(F)(F)F)c(F)c2)C(C)(C)O)cc(=O)[nH]1 [Example 208, 2-(dimethylamino)-N-{(1S)-1-[3-fluoro-4-(trifluoromethoxy)phenyl]-2-hydroxy-2-methylpropyl}-6-oxo-1,6-dihydropyrimidine-4-carboxamide]	0.12 nM
CN(C)c1nc(C(=O)N[C@@](C)(CO)c2ccc(C(F)(F)F)cc2Cl)cc(=O)[nH]1 [Example 209, N-{(1R)-1-[2-chloro-4-(trifluoromethyl)phenyl]-2-hydroxy-1-methylethyl}-2-(dimethylamino)-6-oxo-1,6-dihydropyrimidine-4-carboxamide]	3.9 nM
CN(C)c1nc(C(=O)N[C@@H](c2ccc(OC(F)(F)F)cc2Cl)C(C)(C)O)cc(=O)[nH]1 [Example 210, N-{(1S)-1-[2-chloro-4-(trifluoromethoxy)phenyl]-2-hydroxy-2-methylpropyl}-2-(dimethylamino)-6-oxo-1,6-dihydropyrimidine-4-carboxamide]	0.54 nM
CN(C)c1nc(C(=O)N[C@@H](c2ccc(S(F)(F)(F)(F)F)cc2)C(C)(C)O)cc(=O)[nH]1 [Example 211, 2-(dimethylamino)-N-{(1S)-2-hydroxy-2-methyl-1-[4-(pentafluoro-λ^6-sulfanyl)phenyl]propyl}-6-oxo-1,6-dihydropyrimidine-4-carboxamide]	0.073 nM
CN(C)c1nc(C(=O)NC2(c3ccc(C(F)(F)F)cc3)COC2)cc(=O)[nH]1 [Example 212, 2-(dimethylamino)-6-oxo-N-{3-[4-(trifluoromethyl)phenyl]oxetan-3-yl}-1,6-dihydropyrimidine-4-carboxamide]	9.2 nM

Target: Rhesus PDE2A3 (Macaca mulatta, UniProt B3VTJ2)
Sequence (B3VTJ2 1-941): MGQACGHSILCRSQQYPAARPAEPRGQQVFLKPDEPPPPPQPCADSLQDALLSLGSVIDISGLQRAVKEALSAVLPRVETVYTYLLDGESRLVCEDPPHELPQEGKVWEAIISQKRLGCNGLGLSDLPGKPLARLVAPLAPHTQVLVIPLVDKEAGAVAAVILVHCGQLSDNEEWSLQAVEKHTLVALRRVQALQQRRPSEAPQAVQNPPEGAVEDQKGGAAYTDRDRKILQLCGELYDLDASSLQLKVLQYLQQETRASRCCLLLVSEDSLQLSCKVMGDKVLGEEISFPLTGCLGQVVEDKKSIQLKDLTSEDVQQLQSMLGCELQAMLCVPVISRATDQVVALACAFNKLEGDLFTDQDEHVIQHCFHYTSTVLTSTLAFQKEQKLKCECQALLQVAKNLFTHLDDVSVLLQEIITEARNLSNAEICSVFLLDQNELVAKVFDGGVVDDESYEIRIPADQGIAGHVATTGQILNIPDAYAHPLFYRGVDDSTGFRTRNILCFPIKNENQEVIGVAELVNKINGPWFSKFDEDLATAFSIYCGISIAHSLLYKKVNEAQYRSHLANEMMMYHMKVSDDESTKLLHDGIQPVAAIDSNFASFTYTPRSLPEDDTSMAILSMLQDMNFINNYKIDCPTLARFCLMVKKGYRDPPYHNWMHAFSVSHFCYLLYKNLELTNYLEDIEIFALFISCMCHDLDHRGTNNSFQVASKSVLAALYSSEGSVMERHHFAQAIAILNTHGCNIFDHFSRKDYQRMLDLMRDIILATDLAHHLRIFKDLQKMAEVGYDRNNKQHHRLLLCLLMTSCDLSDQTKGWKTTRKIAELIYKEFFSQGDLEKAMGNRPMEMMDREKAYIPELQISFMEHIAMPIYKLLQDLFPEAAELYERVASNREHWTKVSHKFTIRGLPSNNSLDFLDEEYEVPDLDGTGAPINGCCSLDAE
Experiment: PDE2 fluorescence polarization (IMAP FP) inhibition assay, rhesus PDE2A3
Assay type: biochemical, rhesus macaque
Conditions: @ 1 μM; Lab A; read-out: Rhesus PDE2 % inhibition at a given concentration - Lab A
Procedure: A Labcyte Echo 555 (Labcyte, Sunnyvale, Calif.) is used to dispense 200 nL from each well of the titration plate to the 384 well assay plate. Ten microliters of a solution of enzyme (1/2000 final dilution from aliquots; sufficient to produce 20% substrate conversion) was added to the assay plate. Next 10 uL of a separate solution of the substrate FAM-labeled cAMP (50 nM final concentration product # R^7506 from Molecular Devices) and the activator cGMP (1 uM final concentration), prepared in the assay buffer (10 mM Tris HCl, pH 7.2, 10 mM MgCl2, 0.05% NaN3 0.01% Tween-20, and 1 mM DTT) was added to the assay plate and shaken to mix. The reaction is allowed to proceed at room temperature for 60 minutes. A binding solution is then made from the kit components, comprised of 80% Solution A, 20% Solution B and binding reagent at a volume of 1/600 the total binding solution. The enzymatic reaction is stopped by addition of 60 μL of the binding solution to each well of the assay plates and the plates are sealed and shaken for 30 seconds. The plate was incubated at room temperature for at least one hour prior to determining the fluorescence polarization (FP). The parallel and perpendicular fluorescence of each well of the plate was measured using a Tecan Genios Pro plate reader (Tecan, Switzerland) or Perkin Elmer EnVision™ plate reader (Waltham, Mass.). Fluorescence polarization (mP) was calculated from the parallel (S) and perpendicular (P) fluorescence of each sample well and the analogous values for the median control well, containing only substrate (So and Po), using the following equation: Polarization (mP)=1000*(S/So−P/Po)/(S/So+P/Po).
Dose-inhibition profiles for each compound were characterized by fitting the mP data to a four-parameter equation given below.
An apparent (KM) for FAM-labeled cAMP of ˜10 uM was used.

Compound	inhibition at 1 µM
Cc1cnn(-c2nc(C(=O)N[C@H](C)c3ccc(C(F)(F)F)cc3)cc(=O)[nH]2)c1 [Example 7, (R)-2-(4-methyl-1H-pyrazol-1-yl)-6-oxo-N-(1-(4-(trifluoromethyl)phenyl)ethyl)-1,6-dihydropyrimidine-4-carboxamide]	25%
Cc1ccn(-c2nc(C(=O)N[C@H](C)c3ccc(C(F)(F)F)cc3)cc(=O)[nH]2)n1 [Example 8, (R)-2-(3-methyl-1H-pyrazol-1-yl)-6-oxo-N-(1-(4-(trifluoromethyl)phenyl)ethyl)-1,6-dihydropyrimidine-4-carboxamide]	30%
C[C@@H](NC(=O)c1cc(=O)[nH]c(-n2cccn2)n1)c1ccc(C(F)(F)F)cc1 [Example 9, (R)-6-oxo-2-(1H-pyrazol-1-yl)-N-(1-(4-(trifluoromethyl)phenyl)ethyl)-1,6-dihydropyrimidine-4-carboxamide]	26%

Same assay, conditions: Lab A; read-out: Rhesus PDE2 Ki (nM) - Lab A

Compound	Ki
CSc1nc(C(=O)N[C@@H](C)c2ccc(C(F)(F)F)cc2)cc(=O)[nH]1 [Example 16, (S)-2-(methylthio)-6-oxo-N-(1-(4-(trifluoromethyl)phenyl)ethyl)-1,6-dihydropyrimidine-4-carboxamide]	13300 nM
C[C@@H](NC(=O)c1cc(=O)[nH]c(Oc2ccccc2)n1)c1ccc(C(F)(F)F)cc1 [Example 19, (R)-6-oxo-2-phenoxy-N-(1-(4-(trifluoromethyl)phenyl)ethyl)-1,6-dihydropyrimidine-4-carboxamide]	2930 nM
COCCOc1nc(C(=O)NC(C)c2ccc(C(F)(F)F)cc2)cc(=O)[nH]1 (stereo not shown) [Example 21, 2-(2-Methoxyethoxy)-6-oxo-N-(1-(4-(trifluoromethyl)phenyl)ethyl)-1,6-dihydropyrimidine-4-carboxamide]	657 nM
CNCCCOc1nc(C(=O)NC(C)c2ccc(C(F)(F)F)cc2)cc(=O)[nH]1 (stereo not shown) [Example 180, 2-[3-(methylamino)propoxy]-6-oxo-N-{1-[4-(trifluoromethyl)phenyl]ethyl}-1,6-dihydro-pyrimidine-4-carboxamide]	86000 nM
CC(NC(=O)c1cc(=O)[nH]c(OC2CCN(C)C2)n1)c1ccc(C(F)(F)F)cc1 (stereo not shown) [Example 181, 2-[(1-methylpyrrolidin-3-yl)oxy]-6-oxo-N-{1-[4-(trifluoromethyl)phenyl]ethyl}-1,6-dihydro pyrimidine-4-carboxamide]	> 100000 nM
CC(NC(=O)c1cc(=O)[nH]c(OC2CCCN(C)C2)n1)c1ccc(C(F)(F)F)cc1 (stereo not shown) [Example 182, 2-[(1-methylpiperidin-3-yl)oxy]-6-oxo-N-{1-[4-(trifluoromethyl)phenyl]ethyl}-1,6-dihydro pyrimidine-4-carboxamide]	55000 nM
CC(NC(=O)c1cc(=O)[nH]c(OCCN(C)C)n1)c1ccc(C(F)(F)F)cc1 (stereo not shown) [Example 184, 2-[2-(dimethylamino)ethoxy]-6-oxo-N-{1-[4-(trifluoromethyl)phenyl]ethyl}-1,6-dihydro-pyrimidine-4-carboxamide]	72000 nM
CC(NC(=O)c1cc(=O)[nH]c(OC2CCNC2)n1)c1ccc(C(F)(F)F)cc1 (stereo not shown) [Example 185, 6-oxo-2-(pyrrolidin-3-yloxy)-N-{1-[4-(trifluoromethyl)phenyl]ethyl}-1,6-dihydropyrimidine-4-carboxamide]	> 100000 nM
COC(C)(C)CCOc1nc(C(=O)NC(C)c2ccc(C(F)(F)F)cc2)cc(=O)[nH]1 (stereo not shown) [Example 186, 2-(3-methoxy-3-methylbutoxy)-6-oxo-N-{1-[4-(trifluoromethyl)phenyl]ethyl}-1,6-dihydro pyrimidine-4-carboxamide]	352 nM
CC(NC(=O)c1cc(=O)[nH]c(OC2CCNCC2)n1)c1ccc(C(F)(F)F)cc1 (stereo not shown) [Example 187, 6-oxo-2-(piperidin-4-yloxy)-N-{1-[4-(trifluoromethyl)phenyl]ethyl}-1,6-dihydropyrimidine-4-carboxamide]	> 100000 nM
CC(NC(=O)c1cc(=O)[nH]c(OCC2(C)COC2)n1)c1ccc(C(F)(F)F)cc1 (stereo not shown) [Example 188, 2-[(3-methyloxetan-3-yl)methoxy]-6-oxo-N-{1-[4-(trifluoromethyl)phenyl]ethyl}-1,6-dihydropyrimidine-4-carboxamide]	12600 nM
CNCCOc1nc(C(=O)NC(C)c2ccc(C(F)(F)F)cc2)cc(=O)[nH]1 (stereo not shown) [Example 189, 2-[2-(methylamino)ethoxy]-6-oxo-N-{1-[4-(trifluoromethyl)phenyl]ethyl}-1,6-dihydropyrimidine-4-carboxamide]	9310 nM
CC(NC(=O)c1cc(=O)[nH]c(OC2CCN(C)CC2)n1)c1ccc(C(F)(F)F)cc1 (stereo not shown) [Example 190, 2-[(1-methylpiperidin-4-yl)oxy]-6-oxo-N-{1-[4-(trifluoromethyl)phenyl]ethyl}-1,6-dihydro-pyrimidine-4-carboxamide]	> 100000 nM
CC(NC(=O)c1cc(=O)[nH]c(OC2CCCNC2)n1)c1ccc(C(F)(F)F)cc1 (stereo not shown) [Example 191, 6-oxo-2-(piperidin-3-yloxy)-N-{1-[4-(trifluoromethyl)phenyl]ethyl}-1,6-dihydropyrimidine-4-carboxamide]	> 100000 nM

Same assay, conditions: Rhesus PDE2 Ki (nM) - Lab B, Lab B

Compound	Ki
CC(C)C(C)(NC(=O)c1cc(=O)[nH]c(N(C)C)n1)c1ccc(S(F)(F)(F)(F)F)cc1 (single isomer, unassigned) [Example 172, (R)- or (S)-2-dimethylamino)-N-{1,2-dimethyl-1-[4-(pentafluoro-λ^6-sulfanyl)phenyl]propyl}-6-oxo-1,6-dihydropyrimidine-4-carboxamide]	154 nM
